From patent publication US9844575B2, “Pharmaceutical composition and functional food comprising natural extracts for preventing or treating diabetic complications or angiodema” (KOREA INSTITUTE OF ORIENTAL MEDICINE, priority 2013, dated 2017)
Structures can show the parent of a compound that is named as a salt.

How the values were obtained:
[1] = system: advanced glycation endproducts (AGE); experiment: Inhibitory effect against formation of advanced glycation endproducts (BSA + fructose/glucose, 7 days, fluorescence); type: biochemical
Method: Experiments were performed to examine the inhibitory effects of each of the compositions prepared in Example 1 and Example 2 against the formation of advanced glycation endproducts.
Bovine serum albumin (BSA), a protein source, was prepared by mixing into a phosphate buffer solution. As a sugar source, a mixed solution between 0.2 M fructose and 0.2 M glucose was used. Each of the compositions prepared in Example 1 and Example 2, and aminoguanidine (positive control) were respectively added into a mixed solution between BSA and a sugar, and cultured for 7 days. After culturing, the content of the resulting advanced glycation endproducts was analyzed. The amount of the advanced glycation endproducts was calculated based on the Equation 1 below using a Microplate reader (Excitation; 350 nm, Emission; 450 nm) (Table 1). Inhibitory effect of AGE (%)={100−(fluorescence intensity of a sample)−(fluorescence intensity of a blank sample)/(fluorescence intensity of a control)−(fluorescence intensity of a blank control)}×100 [Equation 1]

[2] = system: vascular endothelial growth factor (VEGF); experiment: Immunohistochemical staining: formation of VEGF in retina of db/db mice; type: in vivo; settings: oral once daily 12 weeks; COPH 25 and 50 mg/kg; MET 350 mg/kg; COPH 50 + MET 350 mg/kg
From the text: VEGF induces neovascularization and increases permeability of blood vessels. Additionally, VEGF also induces the formation of substrate-degradative proteins.

## N=C(N)NN [Aminoguanidine HCl]
[1]; AGE formation, BSA + 0.2 M fructose/0.2 M glucose, 7 days
  IC50: 76.47 ± 4.81 µg/mL
[1]; Conc. 55.5 μg/mL
  Inhibitory effect (%): 43.92 ± 0.37%
[1]; Conc. 74.8 μg/mL
  Inhibitory effect (%): 50.86 ± 2.17%
[1]; Conc. 92.5 μg/mL
  Inhibitory effect (%): 54.91 ± 0.75%

## CN(C)C(=N)N=C(N)N [MET, metformin]
[2]
  expression of VEGF within retinal tissue (FIG. 9): significantly inhibited the expression of VEGF
